One data set relates to M. smegmatis. Nature of the data set: M. smegmatis growth curves with or without meropenem. The class given is cell-based, Mycobacterium smegmatis. The conditions noted are these: 10 μM inhibitor. Here is the method:
Various AIA drugs were administered at 10 μM concentration to M. smegmatis, L. monocytogenes, and S. aureus.

Data set [1] relates to L. monocytogenes. Put plainly: Broth growth curves of L. monocytogenes with antibiotic in presence or absence of kinase inhibitor. The class given is cell-based, Listeria monocytogenes. The conditions noted are these: for synergy with ceftriaxone against L. monocytogenes: AIA drugs at 10 μM; for inhibition of growth in a β-lactam synergistic dependent manner: ceftriaxone.
Data set [2] concerns L. monocytogenes. The class given is cell-based, Listeria monocytogenes. To be noted: β-lactam dependent growth inhibition.
The next data set relates to MSRA. The conditions noted are these: β-lactam dependent growth inhibition.
In another data set the test system is Lmo0618. Put plainly: In vitro protein phosphorylation (autophosphorylation and MBP phosphorylation), Lmo0618. It counts as biochemical, L. monocytogenes. To be noted: 1 μM, 10 μM or 100 μM inhibitor.
In data set [3] the test system is PrkA. Put plainly: In vitro protein phosphorylation (autophosphorylation and MBP phosphorylation), PrkA. To be noted: 1 μM, 10 μM or 100 μM inhibitor. It counts as biochemical, L. monocytogenes.
Method: (§1) In vitro protein phosphorylation. […] To investigate substrate-level phosphorylation, ˜10 μg of myelin basic protein (Novatein Biosciences, Woburn, Mass.) were added to the reaction mixture described above and incubated at room temperature, overnight. The reactions were terminated by adding 5X SDS loading buffer. Samples were fractionated by SDS-PAGE, fixed and dried, and analyzed by autoradiography.
Data set [4] concerns Methicillin-resistant S. aureus (strain USA300). Nature of the data set: Broth growth curves of Methicillin-resistant S. aureus (USA300) with antibiotic in presence or absence of kinase inhibitor. The class given is cell-based, Staphylococcus aureus.
The subject of a further data set is Stk1. Put plainly: Kinase-Glo assay, Stk1. The class given is biochemical, S. aureus. The conditions noted are these: 0-40 μM inhibitor, 20 μM ATP, 10 μM MBP. For orientation: Kinase-Glo measures the ATP left after a reaction by luminescence.
For data set [5], the target named is PrkA (PASTA kinase of L. monocytogenes; kinase domain, GST fusion) (Listeria monocytogenes, UniProt A0A0H3GI69). Nature of the data set: biochemical.
The subject of another data set is zebrafish (Danio rerio). Put plainly: Zebrafish toxicity assay. To be noted: administered in their environment for five days.
Data set [6] deals with PrkA. Nature of the data set: Kinase-Glo assay, PrkA. It counts as biochemical, L. monocytogenes.
The target in a further data set is PknB (Mycobacterium tuberculosis, UniProt P9WI81).
[7] abbreviates: 0-40 μM inhibitor, 20 μM ATP, 10 μM MBP.

pIC50: −log10 of the molar value. Entries after “also recorded” stand apart in the source; their conditions may differ.

Method for Lmo0618: as §1
Method for zebrafish (Danio rerio): Human kinase inhibitors were administered to zebrafish in their environment for five days.

With `CCn1c(-c2nonc2N)nc2c(C#CC(C)(C)O)nc(CN3CCCC3)cc21` [GW1000163A], the “synergistic activity with meropenem against M. smegmatis” value (“synergistic activity with meropenem” below) in the data set on M. smegmatis is “None”. In addition, the “synergy with ceftriaxone against L. monocytogenes” value (“synergy with ceftriaxone” for short) with L. monocytogenes [1] is listed as “did not exhibit such synergistic activity”.

For the compound `CCn1c(-c2nonc2N)nc2c(C#CC(C)(C)O)nc(OCCNC)cc21` [GSK949675A], the “effective dose against L. monocytogenes” value with L. monocytogenes [2] stood at 10 µM. The “synergistic activity with meropenem” value in the data set with M. smegmatis was “None”. For the same compound, the “synergy with ceftriaxone” value with L. monocytogenes [1] is “can inhibit growth in concert with ceftriaxone”. In addition, in the data set on MSRA, the “effective dose against MSRA” value was found to be 10 µM.

In the case of `CCn1c(-c2nonc2N)nc2c(C#CC(C)(C)O)nc(O[C@@H](CN)c3ccccc3)cc21.O=C(O)C(F)(F)F` [GSK1007102B], the “synergistic activity with meropenem” value in the data set with M. smegmatis is reported as “showing such a synergistic effect”. Besides, the “effect on M. smegmatis growth in the absence of a β-lactam” value with M. smegmatis (no additional drugs) is “minor affect on growth; also recorded: shows inhibition in the absence of a β-lactam”. In the data set on L. monocytogenes [1], the “synergy with ceftriaxone” value is “can inhibit growth in concert with ceftriaxone”.

For the compound `Cc1ncc(-c2ccnc(Nc3ccc(S(C)(=O)=O)cc3)n2)n1C(C)C` [AZD5438], the “effective dose against L. monocytogenes” value in the data set on L. monocytogenes [2] stood at 10 µM. Moreover, the “inhibition of Lmo0618 phosphorylation activity” value in the data set on Lmo0618 is “not inhibiting”. Also, the “inhibition of growth in a β-lactam synergistic dependent manner” value in the data set with L. monocytogenes [1] (50 μM AZD5438) is given as “capable of inhibiting L. monocytogenes growth”. In addition, the “inhibition of PrkA autophosphorylation and substrate level (MBP) phosphorylation” value in the data set on PrkA [3] is given as “specifically inhibits PrkA”. The “synergy with β-lactam antibiotics against S. aureus” value in data set [4] (AZD5438, data not shown) is “not S. aureus”.

As to `CCn1c(-c2nonc2N)nc2c(C#CC(C)(C)O)ncc(OC[C@@H]3CCCN3)c21` [GSK614526A], the “synergistic activity with meropenem” value in the data set on M. smegmatis is given as “None”. Also, in the data set with L. monocytogenes [1], the “synergy with ceftriaxone” value is “can inhibit growth in concert with ceftriaxone”.

Take `CCn1c(-c2nonc2N)nc2c(C#CC(C)(C)O)nc(OC[C@H](N)c3ccccc3)cc21` [GSK943949A]: the “synergistic activity with meropenem” value in the data set on M. smegmatis is on record as “None”. Further, the “synergy with ceftriaxone” value in the data set with L. monocytogenes [1] is “can inhibit growth in concert with ceftriaxone”.

The pIC50 is −log10 of the IC50, conventionally taken in molar units. A high value points to a low IC50. As for `CCn1c(-c2nonc2N)nc2c(C#CC(C)(C)O)ncc(OC[C@H]3CCCNC3)c21` [GSK690693, 4-(2-(4-amino-1,2,5-oxadiazol-3-yl)-1-ethyl-7-{[(3S)-3-piperidinylmethyl]oxy}-1H-imidazo[4,5-c]pyridin-4-yl)-2-methyl-3-butyn-2-ol], the “inhibition of Stk1 enzymatic activity in vitro” value with Stk1 is listed as “can inhibit”. The pIC50 in data set [5] was 5.92. The “effective dose against L. monocytogenes” value in the data set with L. monocytogenes [2] was 10 µM. The toxicity in zebrafish entry in the data set with zebrafish (Danio rerio) was “does not induce toxicity”. Moreover, in the data set with PrkA [6] (setting [7]), the “inhibition of PrkA enzymatic activity in vitro” value is given as “can inhibit”. Besides, the “inhibition for PrkA compared to Stk1” value in the data set on PrkA [6] (biochemical) is on record as “four-fold increase in inhibition”. Also, the “synergistic activity with meropenem” value with M. smegmatis is “exhibits synergy; also recorded: can work to inhibit growth synergistically with meropenem”. Further, the “synergy with ceftriaxone” value in the data set with L. monocytogenes [1] is listed as “can inhibit growth in concert with ceftriaxone”. In addition, the “inhibition of growth in a β-lactam synergistic dependent manner” value in the data set on L. monocytogenes [1] (100 μM GSK690693) is on record as “inhibited L. monocytogenes growth in a β-lactam synergistic dependent manner”. Further, on PknB (setting [7]), the “inhibition of PknB enzymatic activity in vitro” value was “can inhibit”. Also, the “inhibition for PknB compared to Stk1” value against PknB (biochemical) is listed as “four-fold increase in inhibition”.

As for `O=c1c2ccccc2[nH]c(=S)n1CCN1CCC(=C(c2ccc(F)cc2)c2ccc(F)cc2)CC1` [diacylglycerol kinase inhibitor II], in the data set with zebrafish (Danio rerio), the toxicity in zebrafish result was “highly toxic”.

Consider `CCn1c(-c2nonc2N)nc2c(C#CC(C)(C)O)nc(OC[C@@H](N)c3ccccc3)cc21` [GSK938890A], for which the “effective dose against L. monocytogenes” value with L. monocytogenes [2] amounted to 10 µM. For the same compound, in the data set on M. smegmatis, the “synergistic activity with meropenem” value is “None”. Also, the “synergy with ceftriaxone” value in the data set on L. monocytogenes [1] is reported as “can inhibit growth in concert with ceftriaxone”.

For `CN[C@@H]1C[C@H]2O[C@@](C)([C@@H]1OC)n1c3ccccc3c3c4c(c5c6ccccc6n2c5c31)C(=O)NC4` [staurosporine], the “susceptibility to vancomycin or kanamycin” value with L. monocytogenes [1] (10 μM staurosporine) is recorded as “unaffected”. Further, the “increase in susceptibility to ceftriaxone upon overexpression of prkA” value in the data set on L. monocytogenes [1] (prkA^theo strain, 2 mM theophylline, 10 μM staurosporine) was 10 fold. The “bacterial morphology by immunofluorescence microscopy” value in the data set with L. monocytogenes [1] (staurosporine combined with β-lactam antibiotics) is “grossly disrupted bacterial morphology”. Further, the sensitization to lysozyme entry in the data set with L. monocytogenes [1] (staurosporine, data not shown) was “increased the sensitization”. For the same compound, the “increase in susceptibility to ceftriaxone” value in the data set with L. monocytogenes [1] (wild type, 10 μM staurosporine) was 100 fold. Besides, the “S. aureus susceptibility to ceftriaxone or other β-lactam or non-β-lactam antibiotics” value in data set [4] (10 μM staurosporine) was “unaffected”.
